Source: US20260374739A1, “SMALL MOLECULAR WEIGHT CHEMICAL COMPOUND TO ANTAGONIZE EPH-EPHRIN TETRAMERIZATION AND INHIBIT BIDIRECTIONAL SIGNALING” (THE BOARD OF REGENTS OF THE UNIVERSITY OF TEXAS SYSTEM, priority 2022, published 2026)

Tests used:
[1] = in vitro plasma stability; assay type: in vitro ADME; details: mouse plasma; for plasma stability: free base or salt
Protocol: FIG. 46 depicts tests of A20 and A20-I free base and salt forms for in vitro plasma stability. Compounds were provided to the UT Southwestern PK Core facility and tested for stability when incubated with mouse plasma.
To examine the drug-like nature of the disclosed compounds, tests for solubility was conducted.

[2] = test system: EphB2; assay: EphB2 phosphorylation in mouse brain after dosing (immunoprecipitation/immunoblot); assay type: in vivo; details: 4 days
Protocol: Wild-type mice aged 10-12 weeks were IP injected every 12 hr for four days with vehicle (PBS) or 10 mg/kg of 2×·HCl salt forms of A20 (in PBS), A20-I (in PBS), or 3511-I, in 94% PBS/6% DMSO) for a total of 8 injections. Exactly 2 hr after final injection of A20 chemical, brains were dissected and frozen at −80 °C. Whole brain protein lysates were then prepared in a Dounce homogenizer using 5 ml PLC lysis buffer, and 1 ml of lysate was used for immunoprecipitation (IP) with 1 μg goat anti-EphB2 antibody, followed by immunoblot (IB) analysis with goat anti-EphB2, rabbit anti-phosphoEphB1/B2 (pEphB1/B2), and mouse anti-EphrinB2 antibodies using appropriate HRP conjugated secondary antibodies and chemiluminescent detection methods.
FIG. 79A depicts an illustrative immunoblot showing expression of EphB2, phospho-EphB1/B2, and EphrinB2 (co-IP) in the mouse brains. […] The level of co-immunoprecipitated EphrinB2 from the brains of A20 chemical injected animals was generally lower as indicated by fainter bands. FIGS. 79B and 79C show quantification of band intensities (number of photons detected) to obtain ratios of pEphB/EphB2 as a measure of EphB2 receptor activation levels (FIG. 79B) and ratios of EphrinB2/EphB2 as a measure of how much EphrinB2 is co-immunoprecipitated with the EphB2 receptor (FIG. 79C).
Whole brain protein lysates were prepared from wild-type mice either oral dosed (PO) or injected (IP) for 4 days with vehicle (PBS) or 20 mg/kg of 2×·HCl salt drugs of A20 or A20-I every 12 hr, with last ([…]) dose staggered such that brain dissections happened 2 hr after final drug dosing. EphB2 was immunoprecipitated from 1 ml of protein lysate using 1 μg of goat anti-EphB2 antibodies and then precipitated proteins immunoblotted with goat anti-EphB2, rabbit anti-pTyr1000, and mouse 4G10 antibodies using appropriate HRP conjugated secondary antibodies and chemiluminescent detection methods.
The pTry1000 and 4G10 immunoblots (FIG. 80B and FIG. 80C, respectively), which both recognize tyrosine phosphorylated proteins and are readouts for the activated EphB2 tyrosine kinase catalytic domain, both show strong tyrosine phosphorylation of the receptor in 3 of 4 vehicle (V) control lanes. […] The results shown here also highlight our finding that when EphB2 is tyrosine phosphorylated and catalytically activate in the intact brain, the protein migrates much slower in the SDS-PAGE gels with apparent migration in distinct bands-220-260 kDa (green arrows in FIGS. 80B and 80C), as opposed to the typical migration of unphosphorylated EphB2 protein at 125 kDa (black arrow in FIG. 80A).

[3] = test system: Zymosan-induced mechanical pain in mice; assay: Zymosan inflammatory pain, mechanical; assay type: in vivo, mouse; details: PO; for mechanical pain ratio: vehicle about 3
Protocol: An alternative and potentially faster pain model using Zymosin (an inflammatory agent like CFA) to induce inflammatory pain was tested. […] Mice were first acclimated to the pain testing set ups and then subjected to baseline mechanical and thermal pain measurements. Early in the morning the following day, the left hind paws were injected subcutaneously with 30 μL of Zymosan (5 mg/ml in PBS; Z4250, Sigma-Aldrich). Two hours after the Zymosan injection, the left hind paws were assessed for thermal pain using Hargreaves device (2-4 hr), and then left paws tested for mechanical pain using VF filaments (4-6 hr), and then again for thermal pain (6-8 hr). Data from two independent experiments were pooled to increase the n values for the three different genotypes. […] Thermal pain increased in all group following Zymosan injury as indicated by a decreased average response time to the infrared heat source in all animals assessed, and the level of pain intensified from the 2-4 hr testing period to the 6-8 hr period.
Inflammatory pain was induced by subcutaneous injection of 30 μl of 5 mg/ml Zymosan into the right hind paws of 12 wild-type adult male mice (5-6 months age, 129×1/SvJ background) that in previous days were acclimated to the testing chambers and assessed to obtain baseline pain measurements. After 15 min, mice were orally dosed with either vehicle only (97% PBS/3% DMSO) or with 20, 10, or 5 mg/kg of A20 (2×·HCl salt in vehicle), 3 mice for each condition. Two hours after Zymosan injection, the right hind paws were assessed for thermal pain using Hargreaves device (2-4 hr), then mice were orally dosed again with vehicle only or A20 chemicals, and then right paws tested for mechanical pain using VF filaments (4-6 hr), and then again for thermal pain (6-8 hr).
Inflammatory pain was induced by subcutaneous injection of 30 μl of 5 mg/ml Zymosan into the left hind paws of 9 wild-type adult males (5-6 months age, 129/CD1 mixed background) that in previous days were acclimated to the testing chambers and assessed to obtain baseline pain measurements. After 15 min, mice were orally dosed with either vehicle only (97% PBS/3% DMSO) or with 20 mg/kg of 3511-I (2×·HCl salt in vehicle), or 20 mg/kg BQPB4 (3×·HCl salt in 97% sunflower seed oil/3% DMSO), 3 mice for each condition. Two hours after Zymosan injection, the left […] hind paws were assessed for mechanical pain using VF filaments (2-4 hr), then mice were orally dosed again with vehicle only or A20 chemicals, and then left hind paws tested for thermal pain using Hargreaves device (4-6 hr), and then again for mechanical pain (6-8 hr).

[4] = test system: DH neurons in the spinal cord; assay: dorsal horn neuron activation (Tom+) after Zymosan; assay type: in vivo, mouse; details: PO
Excerpt: In this example, an in-house method to count and quantify/analyze Tom+ neurons (see Example 23) in the dorsal horn (DH) of the spinal cord is used to track the effect of an inflammatory insult (subcutaneous injection of CFA into the left hind paw). As described above in Example 23, we initially dissected perfusion-fixed spinal cords and then cut in the transverse plane 50 μm thick serial sections throughout the entire length of the lumbar cord of each animal using a vibratome aiming to capture all sections. As serial sections are cut, they are placed into 10 section bins (500 μm spinal cord per bin) and a total of 12 bins are collected spanning 6 mm total spinal cord length. […] Focusing in on this “sweet spot” of 4 bins, the additional sections were mounted and analyzed (aiming for at least 12 sections from these 4 bins, 3 per bin) to increase total data to analyze.
In another example, 307 Axioscan imaged lumbar spinal cord sections from the “sweet spots” of eight+/+wild-type mice subjected to Zymosan pain model and oral dosing of either vehicle (n=3), 3511-I (2×HCl, n=3), or BQPB4 (3×HCl, n=2) were analyzed. […] There was also a trend towards lower overall Tom+ ratios in the 3511-I or BQPB4 treated mice, though the numbers of mice analyzed here were too low to reveal significance.

Oc1c(I)cc(CN2CCOCC2)c2cccnc12 [Compound 7, 7-iodo-5-(morpholinomethyl)quinolin-8-ol]
plasma half-life longer than A20 [1]: 3-5 times | plasma stability [1]: superior stability | activated phosphorylated EphB2 in brain ([2]; IP 10 mg/kg every 12 hr): generally lower level of activated phosphorylated EphB2 in the brain | activated phosphorylated EphB2 in brain ([2]; PO or IP 20 mg/kg every 12 hr): lower levels of activated phosphorylated EphB2 in the brain

Oc1c(Br)cc(CN2CCOCC2)c2cccnc12 [Compound 5, 7-bromo-5-(morpholinomethyl)quinolin-8-ol]
plasma stability [1]: quite stable | activated phosphorylated EphB2 in brain ([2]; IP 10 mg/kg every 12 hr): generally lower level of activated phosphorylated EphB2 in the brain | activated phosphorylated EphB2 in brain ([2]; PO or IP 20 mg/kg every 12 hr): lower levels of activated phosphorylated EphB2 in the brain | mechanical pain [3]: significant reductions in both mechanical and thermal pain | mechanical pain ratio [3]: ~1

COc1ccccc1N1CCN(Cc2cc(I)c(O)c3ncccc23)CC1 [Compound 71, 7-iodo-5-((4-(2-methoxyphenyl)piperazin-1-yl)methyl)quinolin-8-ol]
activated phosphorylated EphB2 in brain ([2]; IP 10 mg/kg every 12 hr): generally lower level of activated phosphorylated EphB2 in the brain | mechanical pain [3]: somewhat blunted mechanical pain response | ratio of Tom+ DH neurons [4]: significantly lower ratio of Tom+ neurons compared to the vehicle treated animals

Oc1c(Br)cc(CN2CCN(c3ccc(Br)cc3)CC2)c2cccnc12 [Compound 28, 7-bromo-5-((4-(4-bromophenyl)piperazin-1-yl)methyl)quinolin-8-ol]
mechanical pain [3]: essentially no enhanced mechanical pain sensitivity | mechanical pain ratio [3]: ~1 | ratio of Tom+ DH neurons [4]: significantly lower ratio of Tom+ neurons compared to the vehicle treated animals
